Reference: ChEMBL document CHEMBL3608206, “Phenolic 4-hydroxy and 3,5-dihydroxy derivatives of 3-phenoxyquinoxalin-2(1H)-one as potent aldose reductase inhibitors with antioxidant activity” (Bioorg Med Chem Lett, 2015)

Assays:
[1] = Antioxidant activity assessed as DPPH radical scavenging activity at 100 uM after 240 mins by spectrophotometric analysis relative to control; assay type: physicochemical; details: 4 h
[2] = biological target: Aldo-keto reductase family 1 member B1 (Rattus norvegicus, UniProt P07943); test: Inhibition of Wistar rat ALR2 using D,L-glyceraldehyde as substrate assessed as oxidation of NADPH preincubated for 10 mins followed by substrate addition measured for 4 mins by spectrophotometric analysis
Brain [3] = test: Antioxidant activity in rat brain assessed as inhibition of MDA production at 100 uM by TBARS assay relative to control; assay type: functional
Brain [4] = test: Antioxidant activity in rat brain assessed as inhibition of MDA production at 10 uM by TBARS assay relative to control; assay type: functional
[5] = Antioxidant activity assessed as DPPH radical scavenging activity at 50 uM after 240 mins by spectrophotometric analysis relative to control; assay type: physicochemical; details: 4 h
[6] = biological target: Aldo-keto reductase family 1 member B1 (Rattus norvegicus) (UniProt P07943); test: Inhibition of Wistar rat ALR2 using D,L-glyceraldehyde as substrate assessed as oxidation of NADPH at 10 uM preincubated for 10 mins followed by substrate addition measured for 4 mins by spectrophotometric analysis relative to control

SMILES	Activity [1]	IC50 [2]	Activity [5]	inhibition [6]	inhibition at 100 µM (Brain [3])	inhibition at 10 µM (Brain [4])
O=C(O)Cn1c(=O)c(Oc2ccc(O)cc2)nc2ccccc21	21.3%	374 nM	–	–	12.3%	–
O=C(O)Cn1c(=O)c(Oc2cc(O)cc(O)c2)nc2ccccc21	67.4%	940 nM	46.5%	–	34.5%	5.7%
O=C(O)Cn1c(=O)c(Oc2cc(O)cc(O)c2)nc2ccc(F)cc21	38.2%	–	29.3%	34%	20.3%	9.3%
O=C(O)Cn1c(=O)c(Oc2cc(O)cc(O)c2)nc2ccc(Cl)cc21	91.3%	566 nM	83.7%	–	55.3%	26.6%
O=C(O)Cn1c(=O)c(Oc2ccc(O)cc2)nc2ccc(Cl)cc21	84.8%	179 nM	47.3%	–	49.4%	10.1%

The next lines start with results.

Activity [1]	IC50 [2]	Activity [5]	inhibition [6]	SMILES	inhibition at 100 µM (Brain [3])	inhibition at 10 µM (Brain [4])
25.4%	130 nM	–	–	O=C(O)Cn1c(=O)c(Oc2cc(O)cc(O)c2)nc2cc(F)ccc21	15.5%	–
56.5%	982 nM	34.5%	–	O=C(O)Cn1c(=O)c(Oc2cc(O)cc(O)c2)nc2cc(Cl)ccc21	24.5%	8.1%
23.7%	19.6 nM	–	–	O=C(O)Cn1c(=O)c(Oc2ccc(O)cc2)nc2cc(F)ccc21	14.3%	–
96.7%	–	93.3%	–	Cc1c(C)c2c(c(C)c1O)CCC(C)(C(=O)O)O2 (stereo not drawn) [TROLOX]	71.3%	90.1%
